Where a name gives a salt, the structure may show the parent alone.
Legend:
Format in all cases: cell-based
3T3-L1 cells [1] = test: Oil Red O staining of lipid droplets during adipocyte differentiation
Method: The major marker component of the desalted Salicornia powder, trans-ferulic acid (TFA), was evaluated for its inhibitory effect on adipocyte differentiation using 3T3-L1 cells as an in-vitro model of adipocyte differentiation. 3T3-L1 preadipocytes were checked for contamination every eight hours to improve confidence in the experiment. Primary preadipocytes were propagated, and were then induced to differentiate with a culture medium containing 3-isobutyl-1-methylxanthine (IBMX), dexamethasone and insulin. During the differentiation induction, the medium was changed twice every three days. After being induced to differentiate, 3T3-L1 cells were subjected to Oil Red O staining to detect the presence of intracellular lipid droplets. First, the medium was discarded from each well, and cells were fixed with 4% paraformaldehyde. Subsequently, cells were washed with 100% 1,2-propanediol dehydration solution for 5 min and then stained with Oil Red O stain solution. After Oil Red O staining, 85% 1,2-propanediol stain differential solution was added to each well for cell washing. Finally, distilled water was added to each well to prevent stained cells from drying, and cells were observed under a microscope to determine lipid accumulation.

3T3-L1 cells [2] = test: Intracellular triglyceride formation during adipocyte differentiation
Method: The major marker component of the desalted Salicornia powder, trans-ferulic acid (TFA), was evaluated for its inhibitory effect on adipocyte differentiation using 3T3-L1 cells as an in-vitro model of adipocyte differentiation. 3T3-L1 preadipocytes were checked for contamination every eight hours to improve confidence in the experiment. Primary preadipocytes were propagated, and were then induced to differentiate with a culture medium containing 3-isobutyl-1-methylxanthine (IBMX), dexamethasone and insulin. During the differentiation induction, the medium was changed twice every three days. In addition, as a marker for adipocyte differentiation, intracellular triglyceride formation was investigated.

FAS = test: Real-Time RT-PCR, FAS gene expression in 3T3-L1; conditions: 1, 2, 5 and 10 μM; largest decrease at 10 μM
Method: (§1) Real-Time RT-PCR was performed to investigate the effect of trans-ferulic acid (TFA) on transcription factors involved in lipid metabolism at mRNA expression levels. Total RNA was isolated from a control group and each test group treated with various concentrations of TFA (easy-Blue, iNtRon, INC, Daejeon, Korea) and diluted at the same concentration, and cDNA synthesis was carried out using the diluted RNA samples (cDNA reverse transcription kits, Applied Biosystems, CA, USA).
(§2) In brief, after 3T3-L1 preadipocytes were treated with TFA at various concentrations, namely 1, 2, 5 and 10 μM), Real-time qRT-PCR was performed using the primers of Table 9 (CFX96 real-time PCR detection system, Bio-Rad Laboratories, Hercules, Calif., USA). The PCR conditions included denaturation at […] for 3 min, 45 cycles of 95° C. for 5 sec and 60° C. for 20 sec, and heating up to 95° C. (by increasing the temperature at a rate of 0.2° C./15 sec) to terminate the reaction. […] Therefore, the Desalted Salicornia Powder (DSP) containing TFA as an effective component may effectively reduce body fat by inhibiting adipocyte differentiation and lipid droplet formation and may eventually lead to a decrease in body weight, and thus has the potential to be applied as a functional food and feedstuff for preventing and/or treating obesity.

SREBP-1 = test: Real-Time RT-PCR, SREBP-1 gene expression in 3T3-L1; conditions: 1, 2, 5 and 10 μM; largest decrease at 10 μM
Method: as §1, §2

C/EBPα = test: Real-Time RT-PCR, C/EBPα gene expression in 3T3-L1; conditions: 5 μM and 10 μM
Method: as §1, §2

PPARγ = test: Real-Time RT-PCR, PPARγ gene expression in 3T3-L1; conditions: 10 μM
Method: as §1, §2

For COc1cc(/C=C/C(=O)O)ccc1O [TFA, trans-ferulic acid], the “inhibition of lipid droplet formation compared to differentiation-induced control (MDI)” value (3T3-L1 cells [1]; 5 μM and 10 μM) was “remarkably significant inhibition”, the “adipocyte differentiation and lipid droplet formation (Oil Red O)” value (3T3-L1 cells [1]; within the used concentrations) was “inhibit adipocyte differentiation and lipid droplet formation in a dosage-dependent manner” and the “triglyceride formation compared to differentiation-induced control (MDI)” value (3T3-L1 cells [2]; 5 μM and 10 μM) was “remarkably significantly inhibited”. The intracellular triglyceride formation (3T3-L1 cells [2]; 1, 2, 5 and 10 μM) was “reduced intracellular triglyceride formation in a dosage-dependent manner”, the “FAS gene expression compared to differentiation-induced control (MDI)” value (FAS) was “reduced in a dosage-dependent manner” and the “SREBP-1 gene expression compared to differentiation-induced control (MDI)” value (SREBP-1) was “reduced in a dosage-dependent manner”. The “C/EBPα gene expression compared to differentiation-induced control (MDI)” value (C/EBPα) was “significantly reduced in a dosage-dependent manner” and the PPARγ gene expression (PPARγ) was “significantly reduced”.
